Test results from PubChem BioAssay (NCI).
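How tested: cells in 96-well plates exposed to compound for 48 hours at five concentrations. The concentration for full growth arrest is given as TGI.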

How the values were obtained:
Test in all cases: growth of human tumour cells (NCI), 48 h
HT29 colon = system: HT29 colon
LOX IMVI melanoma = system: LOX IMVI melanoma
UO-31 renal = system: UO-31 renal
SF-539 CNS = system: SF-539 CNS
A549 NSCLC = system: A549 NSCLC
HCC-2998 colon = system: HCC-2998 colon
SNB-75 CNS = system: SNB-75 CNS
IGROV1 ovarian = system: IGROV1 ovarian
OVCAR-4 ovarian = system: OVCAR-4 ovarian
NCI/ADR-RES ovarian = system: NCI/ADR-RES ovarian
MALME-3M melanoma = system: MALME-3M melanoma
HOP-92 NSCLC = system: HOP-92 NSCLC
SK-MEL-5 melanoma = system: SK-MEL-5 melanoma
SF-295 CNS = system: SF-295 CNS
A498 renal = system: A498 renal
RXF 393 renal = system: RXF 393 renal
HS 578T breast = system: HS 578T breast
SNB-19 CNS = system: SNB-19 CNS
MCF7 breast = system: MCF7 breast
MOLT-4 leukemia = system: MOLT-4 leukemia
SN12C renal = system: SN12C renal
MDA-N = system: MDA-N
MDA-MB-435 = system: MDA-MB-435
BT-549 breast = system: BT-549 breast
HCT-116 colon = system: HCT-116 colon
UACC-257 melanoma = system: UACC-257 melanoma
CAKI-1 renal = system: CAKI-1 renal
SK-MEL-28 melanoma = system: SK-MEL-28 melanoma
ACHN renal = system: ACHN renal
OVCAR-3 ovarian = system: OVCAR-3 ovarian
NCI-H23 lung = system: NCI-H23 lung
786-0 renal = system: 786-0 renal
OVCAR-8 ovarian = system: OVCAR-8 ovarian
SK-OV-3 ovarian = system: SK-OV-3 ovarian
CCRF-CEM leukemia = system: CCRF-CEM leukemia
EKVX NSCLC = system: EKVX NSCLC
M14 melanoma = system: M14 melanoma
TK-10 renal = system: TK-10 renal
COLO 205 colon = system: COLO 205 colon
UACC-62 melanoma = system: UACC-62 melanoma
K-562 leukemia = system: K-562 leukemia
DU-145 prostate = system: DU-145 prostate
KM12 colon = system: KM12 colon
HL-60(TB) leukemia = system: HL-60(TB) leukemia
T-47D breast = system: T-47D breast
SW-620 colon = system: SW-620 colon
HCT-15 colon = system: HCT-15 colon
HOP-62 NSCLC = system: HOP-62 NSCLC
PC-3 prostate = system: PC-3 prostate
U251 CNS = system: U251 CNS
NCI-H226 lung = system: NCI-H226 lung
NCI-H460 lung = system: NCI-H460 lung
SF-268 CNS = system: SF-268 CNS
MDA-MB-231 breast = system: MDA-MB-231 breast
NCI-H522 lung = system: NCI-H522 lung
SR leukemia = system: SR leukemia
RPMI-8226 leukemia = system: RPMI-8226 leukemia
OVCAR-5 ovarian = system: OVCAR-5 ovarian
SK-MEL-2 melanoma = system: SK-MEL-2 melanoma

Cc1ccc2nc(C=Nc3ccccc3Cl)cc(C)c2c1
TGI (HT29 colon): 36.8 µM | TGI (LOX IMVI melanoma): 22.6 µM | TGI (UO-31 renal): 35.5 µM | TGI (SF-539 CNS): 33.7 µM | TGI (A549 NSCLC): > 100 µM | TGI (HCC-2998 colon): > 100 µM | TGI (SNB-75 CNS): 56.2 µM | TGI (IGROV1 ovarian): 36.7 µM | TGI (OVCAR-4 ovarian): 92.9 µM | TGI (NCI/ADR-RES ovarian): 40.2 µM | TGI (MALME-3M melanoma): 61.9 µM | TGI (HOP-92 NSCLC): 83 µM | TGI (SK-MEL-5 melanoma): 29.5 µM | TGI (SF-295 CNS): 47.2 µM | TGI (A498 renal): > 100 µM | TGI (RXF 393 renal): 29.6 µM | TGI (HS 578T breast): 81.2 µM | TGI (SNB-19 CNS): > 100 µM | TGI (MCF7 breast): 46.8 µM | TGI (MOLT-4 leukemia): 35.1 µM | TGI (SN12C renal): 28.6 µM | TGI (MDA-N): 23.8 µM | TGI (MDA-MB-435): 28.5 µM | TGI (BT-549 breast): 30.1 µM | TGI (HCT-116 colon): 16.3 µM | TGI (UACC-257 melanoma): 30.6 µM | TGI (CAKI-1 renal): > 100 µM | TGI (SK-MEL-28 melanoma): 42 µM | TGI (ACHN renal): > 100 µM | TGI (OVCAR-3 ovarian): 35.4 µM | TGI (NCI-H23 lung): 46.4 µM | TGI (786-0 renal): 33.2 µM | TGI (OVCAR-8 ovarian): 29.9 µM | TGI (SK-OV-3 ovarian): > 100 µM | TGI (CCRF-CEM leukemia): 52.8 µM | TGI (EKVX NSCLC): > 100 µM | TGI (M14 melanoma): 35.1 µM | TGI (TK-10 renal): 98.7 µM | TGI (COLO 205 colon): > 100 µM | TGI (UACC-62 melanoma): 30.4 µM | TGI (K-562 leukemia): > 100 µM | TGI (DU-145 prostate): > 100 µM | TGI (KM12 colon): 35.9 µM | TGI (HL-60(TB) leukemia): 18.4 µM | TGI (T-47D breast): 47.4 µM | TGI (SW-620 colon): 28.5 µM | TGI (HCT-15 colon): 38.1 µM | TGI (HOP-62 NSCLC): > 100 µM | TGI (PC-3 prostate): > 100 µM | TGI (U251 CNS): 37.7 µM | TGI (NCI-H226 lung): 48.8 µM | TGI (NCI-H460 lung): 38.6 µM | TGI (SF-268 CNS): 40 µM | TGI (MDA-MB-231 breast): 35.6 µM | TGI (NCI-H522 lung): 47.2 µM | TGI (SR leukemia): 26.6 µM | TGI (RPMI-8226 leukemia): > 100 µM | TGI (OVCAR-5 ovarian): > 100 µM | TGI (SK-MEL-2 melanoma): > 100 µM

Cc1cc2c(cc1C)N1C(Cl)=C3CCCCC3=C(C#N)C1N2 (stereo not given)
TGI (HT29 colon): 6.94 µM | TGI (LOX IMVI melanoma): 4.37 µM | TGI (UO-31 renal): 17.7 µM | TGI (SF-539 CNS): 41.6 µM | TGI (A549 NSCLC): 45.8 µM | TGI (HCC-2998 colon): 22.4 µM | TGI (SNB-75 CNS): 56.9 µM | TGI (IGROV1 ovarian): 28.3 µM | TGI (OVCAR-4 ovarian): 31.7 µM | TGI (NCI/ADR-RES ovarian): 14.5 µM | TGI (MALME-3M melanoma): 34.6 µM | TGI (HOP-92 NSCLC): > 30.4 µM | TGI (SK-MEL-5 melanoma): > 32.8 µM | TGI (SF-295 CNS): 42.4 µM | TGI (A498 renal): 33.8 µM | TGI (RXF 393 renal): 29 µM | TGI (HS 578T breast): > 100 µM | TGI (SNB-19 CNS): 45.3 µM | TGI (MCF7 breast): 21.6 µM | TGI (MOLT-4 leukemia): > 42.9 µM | TGI (SN12C renal): 14.7 µM | TGI (MDA-N): 15.1 µM | TGI (MDA-MB-435): > 33.1 µM | TGI (BT-549 breast): 8.46 µM | TGI (UACC-257 melanoma): 22.3 µM | TGI (CAKI-1 renal): 12.3 µM | TGI (SK-MEL-28 melanoma): 10.6 µM | TGI (ACHN renal): 10.5 µM | TGI (OVCAR-3 ovarian): 30.5 µM | TGI (NCI-H23 lung): 14.2 µM | TGI (786-0 renal): 3.61 µM | TGI (OVCAR-8 ovarian): 32.9 µM | TGI (SK-OV-3 ovarian): 39.6 µM | TGI (CCRF-CEM leukemia): > 23.2 µM | TGI (EKVX NSCLC): 41.2 µM | TGI (M14 melanoma): 21.2 µM | TGI (TK-10 renal): 18.6 µM | TGI (COLO 205 colon): 33.9 µM | TGI (UACC-62 melanoma): 7.63 µM | TGI (K-562 leukemia): > 100 µM | TGI (DU-145 prostate): 36.4 µM | TGI (KM12 colon): 24 µM | TGI (HL-60(TB) leukemia): > 100 µM | TGI (T-47D breast): 28.3 µM | TGI (SW-620 colon): 4.39 µM | TGI (HCT-15 colon): 7.76 µM | TGI (HOP-62 NSCLC): 30.1 µM | TGI (PC-3 prostate): 27.3 µM | TGI (U251 CNS): 24.6 µM | TGI (NCI-H226 lung): 30.5 µM | TGI (NCI-H460 lung): 51.8 µM | TGI (SF-268 CNS): 60.4 µM | TGI (MDA-MB-231 breast): 30.1 µM | TGI (NCI-H522 lung): 3.91 µM | TGI (SR leukemia): > 100 µM | TGI (RPMI-8226 leukemia): > 100 µM | TGI (OVCAR-5 ovarian): 36 µM | TGI (SK-MEL-2 melanoma): 29.2 µM

COC(=O)[C@@]12OC[C@]34[C@H]([C@@H](O)[C@@H]1O)[C@@]1(C)CC(=O)C(OC(C)=O)=C(C)[C@@H]1C[C@H]3OC(=O)[C@H](OC(=O)C=C(C)C)[C@@H]24
TGI (HT29 colon): 58.3 µM | TGI (LOX IMVI melanoma): 0.981 µM | TGI (UO-31 renal): 14.5 µM | TGI (SF-539 CNS): 1.82 µM | TGI (A549 NSCLC): 4.92 µM | TGI (HCC-2998 colon): 0.716 µM | TGI (SNB-75 CNS): 4.45 µM | TGI (IGROV1 ovarian): 2.59 µM | TGI (OVCAR-4 ovarian): 4.05 µM | TGI (NCI/ADR-RES ovarian): 57.4 µM | TGI (MALME-3M melanoma): 1.2 µM | TGI (HOP-92 NSCLC): 4.04 µM | TGI (SK-MEL-5 melanoma): 1.33 µM | TGI (SF-295 CNS): 3 µM | TGI (A498 renal): 1.78 µM | TGI (RXF 393 renal): 3.41 µM | TGI (HS 578T breast): 3.32 µM | TGI (SNB-19 CNS): 77.8 µM | TGI (MCF7 breast): 2.99 µM | TGI (MOLT-4 leukemia): 4.23 µM | TGI (SN12C renal): 4.52 µM | TGI (MDA-N): 3.2 µM | TGI (MDA-MB-435): 3.45 µM | TGI (BT-549 breast): 5.27 µM | TGI (HCT-116 colon): 2 µM | TGI (UACC-257 melanoma): 2.28 µM | TGI (CAKI-1 renal): 10.8 µM | TGI (SK-MEL-28 melanoma): 2.67 µM | TGI (ACHN renal): 10.8 µM | TGI (OVCAR-3 ovarian): 1.01 µM | TGI (NCI-H23 lung): 2.2 µM | TGI (786-0 renal): 3.19 µM | TGI (OVCAR-8 ovarian): 2.54 µM | TGI (SK-OV-3 ovarian): 1.78 µM | TGI (CCRF-CEM leukemia): 3.83 µM | TGI (EKVX NSCLC): 5.38 µM | TGI (M14 melanoma): 2.63 µM | TGI (TK-10 renal): 4.75 µM | TGI (COLO 205 colon): 2.79 µM | TGI (UACC-62 melanoma): 3.16 µM | TGI (K-562 leukemia): 9.7 µM | TGI (DU-145 prostate): 6.37 µM | TGI (KM12 colon): 4.18 µM | TGI (HL-60(TB) leukemia): 1.65 µM | TGI (T-47D breast): 5.93 µM | TGI (HCT-15 colon): 7.46 µM | TGI (HOP-62 NSCLC): 2.86 µM | TGI (PC-3 prostate): 4.01 µM | TGI (U251 CNS): 3.26 µM | TGI (NCI-H226 lung): 3.94 µM | TGI (NCI-H460 lung): 1.38 µM | TGI (SF-268 CNS): 3.05 µM | TGI (MDA-MB-231 breast): 5.8 µM | TGI (NCI-H522 lung): 1.49 µM | TGI (SR leukemia): 2.07 µM | TGI (RPMI-8226 leukemia): 3.21 µM | TGI (OVCAR-5 ovarian): 6.79 µM | TGI (SK-MEL-2 melanoma): 2.79 µM
